Test results taken from ChEMBL document CHEMBL1201862, “PubChem BioAssay data set” (2004).
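In this assay, cells in 96-well plates receive the compound at five concentrations for 48 hours. Endpoints are linearly interpolated between the surrounding concentrations. GI50 = concentration required for 50% inhibition of growth.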 Calls of active or inactive are those of the source. Rule as the data show it: active = GI50 up to about 1.1 µM and inactive = higher.

Experiments:
Assay in all cases: NCI tumour cell line growth inhibition, 48 h
[1] = tested on: DMS-114
[2] = tested on: DLD-1
[3] = tested on: M19-MEL
[4] = tested on: DMS-273
[5] = tested on: HOP-18
[6] = tested on: Hs-578T
[7] = tested on: SNB-78
[8] = tested on: XF498
[9] = tested on: RXF 631

SMILES	GI50 [2]	GI50 [3]	GI50 [6]	GI50 [7]	also measured
CN1CCN(CCCN2c3ccccc3Sc3ccc(C(F)(F)F)cc32)CC1	13.8 µM (inactive)	1.87 µM (inactive)	4.35 µM (inactive)	15.7 µM (inactive)	GI50 [1]: 10 µM (inactive); GI50 [4]: 6.65 µM (inactive); GI50 [5]: 9.89 µM (inactive)
COC(=O)C1=C(C(=O)OC)C2=S(SC3=C2CCCC3)S1 (stereo unspecified)	24 µM (inactive)	26.5 µM (inactive)			GI50 [4]: 13.1 µM (inactive)
Cn1nnc2c(C(N)=O)ncn2c1=O [TEMOZOLOMIDE]	> 100 µM (inactive)	> 100 µM (inactive)	> 100 µM (inactive)	> 100 µM (inactive)	GI50 [1]: > 100 µM (inactive); GI50 [8]: > 100 µM (inactive); GI50 [5]: > 100 µM (inactive)
N=c1oc2ccccc2cc1C(=O)Nc1nccs1			46.3 µM (inactive)		
COC(=O)[C@@]1(O)CC(C)C=C1C=O (stereo partly specified)	43 µM (inactive)	80.7 µM (inactive)		20.2 µM (inactive)	GI50 [1]: 30.2 µM (inactive); GI50 [8]: > 100 µM (inactive); GI50 [4]: 19.2 µM (inactive); GI50 [5]: > 100 µM (inactive)
COc1ccc(C2CC(c3ccc4ccccc4c3O)=NN2C(C)=O)cc1OC (stereo unspecified)			71.1 µM (inactive)		
COc1cc2oc(=O)cc(C)c2cc1OC			> 100 µM (inactive)		
COc1ccc2nc(-c3ccccc3)cc(OCC(=O)O)c2c1			> 100 µM (inactive)		
CC(=O)ON(C(C)=O)c1ccc(-c2nc3ccccc3s2)cc1			21.2 µM (inactive)		
COc1ccc(-c2cc(=O)c3c(OC)c(OC)c(OC)c(OC)c3o2)cc1 [TANGERETIN]			34.2 µM (inactive)		
CCC1(CC)SCc2nc3ccccc3n21			31.1 µM (inactive)		
C=C1C(=O)OC2/C=C(\C)C(=O)CC3OC(C)(C)OC3(C)CC(OC(=O)/C(C)=C/C)C12 (stereo unspecified)			28.9 µM (inactive)		
Cc1cc(=O)oc2cc(O)c(CN(C)CC(=O)O)cc12			> 100 µM (inactive)		
NCc1c(C(N)=O)ncn1Cc1ccccc1		> 100 µM (inactive)		> 100 µM (inactive)	GI50 [1]: > 100 µM (inactive); GI50 [8]: > 100 µM (inactive); GI50 [4]: > 100 µM (inactive); GI50 [5]: > 100 µM (inactive)
Nc1ccc(C(=O)N/C(=C\c2ccc3c(c2)OCO3)c2nc3ccc4c(c3[nH]2)C(=O)c2ccccc2C4=O)cc1	9.82 µM (inactive)	38.2 µM (inactive)		45.9 µM (inactive)	GI50 [9]: 37.3 µM (inactive); GI50 [1]: 28.2 µM (inactive); GI50 [8]: 93.8 µM (inactive); GI50 [4]: 23.6 µM (inactive)
COc1ccc2c(c1)SC1=Nc3sc4cc(OC)ccc4[n+]3CN12			44.8 µM (inactive)		

SMILES	GI50 [2]	GI50 [3]	GI50 [6]	GI50 [7]	also measured
CC(=O)NNc1nc(C)c(C(=O)NNC(=O)C(=O)Nc2ccc(Cl)c([N+](=O)[O-])c2)s1		67.8 µM (inactive)		45.8 µM (inactive)	GI50 [1]: 46.9 µM (inactive); GI50 [8]: 42.6 µM (inactive)
O=C1CCCCC1CN1CCCCC1 (stereo unspecified)			> 100 µM (inactive)		
CCOC(=O)c1c(C)n(Cc2ccccc2)c(=O)c2ccccc2c(=O)c2c(=O)ccc(=O)c1=2			> 100 µM (inactive)		
N#CC(/C(CCCC(=O)Nc1cccc([N+](=O)[O-])c1)=N\NC(=O)c1c(O)ccc2ccccc12)c1nc2ccccc2s1 (stereo unspecified)	45.5 µM (inactive)	16.4 µM (inactive)		37.4 µM (inactive)	GI50 [1]: 12.6 µM (inactive); GI50 [8]: 21.8 µM (inactive); GI50 [4]: 8.63 µM (inactive); GI50 [5]: 23.1 µM (inactive)
CC1C(=O)C(C)C(c2ccccc2)N(N=O)C1c1ccccc1 (stereo unspecified)	> 100 µM (inactive)	> 100 µM (inactive)	46.7 µM (inactive)	> 47 µM (inactive)	GI50 [8]: 19.4 µM (inactive); GI50 [4]: > 798 µM (inactive); GI50 [5]: > 100 µM (inactive)
COc1cc(C2c3cc4c(cc3C(O)C3CCC(=O)N23)OCO4)cc(OC)c1OC (stereo unspecified)			34.5 µM (inactive)		
Cc1ccc(S[C@@H](C)[C@@](O)(CF)CN(Cc2ccccc2)C(=O)C(F)(F)F)cc1			18.3 µM (inactive)		
Cc1ccc(C(=O)Nc2ccccc2)cc1/N=N/N(C)C	> 100 µM (inactive)	> 100 µM (inactive)		> 100 µM (inactive)	GI50 [4]: > 100 µM (inactive)
CC(CN(C)C)C(O)(c1ccccc1)c1ccccc1 (stereo unspecified)			> 100 µM (inactive)		
C=C(C)C(O)C(O)c1c(OC)ccc2ccc(=O)oc12 (stereo unspecified)			> 100 µM (inactive)		
O=C1c2ccccc2C(=O)c2c(OCC3CO3)ccc(OCC3CO3)c21 (stereo unspecified)			16.2 µM (inactive)		
COC(=O)C1N=CSCC1(C)O (stereo unspecified)	> 100 µM (inactive)	> 100 µM (inactive)		> 100 µM (inactive)	GI50 [1]: > 100 µM (inactive); GI50 [8]: > 100 µM (inactive); GI50 [5]: > 100 µM (inactive)
O=C(/C=C\c1cccc2ccccc12)c1ccc(Cl)cc1Cl	22 µM (inactive)	19.1 µM (inactive)		20.3 µM (inactive)	GI50 [9]: 23.8 µM (inactive); GI50 [1]: 14.8 µM (inactive); GI50 [4]: 18.8 µM (inactive); GI50 [5]: 22.8 µM (inactive)
C=CCNS(=O)(=O)c1ncnc2[nH]cnc12			> 100 µM (inactive)		
Oc1ccc(-c2nn3c(CCCCCCCCc4nnc5sc(-c6ccc(O)cc6)nn45)nnc3s2)cc1			> 100 µM (inactive)		
